Results published in US20050054620A1, “Paricalcitol as a chemotherapeutic agent” (priority 2003, published 2005).
“Also recorded” adds a separate entry of the source.

Key:
NCI-H929 cells = test: TUNEL assay of apoptosis; format: cell-based, human; conditions: for apoptotic cells by TUNEL assay: 0.01 μM each, 3 days
Procedure: In FIG. […] Results represent the mean±SD of three independent experiments. A TUNEL assay was performed for immunohistochemical detection and quantification of programmed cell death at the single cell level, based on labeling of DNA strand breaks using the In Situ Cell Death Detection, POD (Roche, Indianapolis, Ind.). Early apoptosis was also detected by measuring annexin V protein in the cell membrane using Annexin V-FITC Kit (CLONTECH, Palo Alto, Calif.) followed by flow cytometric analysis.

[1] = system: HL-60 myeloid leukemia cells; test: MTT assay; format: cell-based, human; conditions: 4 days exposure
NB-4 cells [2] = test: CD14 expression by flow cytometry; format: cell-based, human; conditions: paricalcitol 0.1 μM, arsenic trioxide 0.6 μM, 3 days
HL-60 cells = test: NBT reduction (monocytic differentiation); format: cell-based, human; conditions: paricalcitol 0.01 μM, arsenic trioxide 0.8 μM, 3 days
NB-4 cells [3] = test: Cell cycle analysis by flow cytometry (sub-G1); format: cell-based, human; conditions: paricalcitol 0.1 μM and/or arsenic trioxide 0.6 μM, 4 days, control 4%
Procedure: Cell cycle analysis was performed as follows: after treatment of 5×10^4 of cells with a selected compound, cells were collected, washed and suspended in cold PBS. Cells were fixed in chilled 75% methanol and stained with propidium iodine. Cell cycle status was analyzed on a Becton Dickinson Flow Cytometer used standart protocols.

wild type U937 cells = test: CD14 expression by flow cytometry; format: cell-based, human; conditions: paricalcitol 0.01 μM, arsenic trioxide 0.4 μM
From the text: To examine the association between the presence of the fusion protein and the effect of the combination treatment, an engineered U937 monocytic leukemia cell line (PR9) that has stable integration of the PML-RARa cDNA under the control of the Zn^2+-inducible murine metallothionein 1 promoter was used. Also used were U937 cells transfected with the MT vector (B41) as a control.

24-hydroxylase = molecular target: T1, 24-hydroxylase (Homo sapiens, UniProt Q07973); test: 24-hydroxylase activity by level of 24.25(OH)2D3 in NB-4 cells; format: cell-based; design: endogenous in cells; conditions: paricalcitol 0.1 μM, arsenic trioxide 0.6 μM, 3 days
T1 sequence (Q07973 36-514): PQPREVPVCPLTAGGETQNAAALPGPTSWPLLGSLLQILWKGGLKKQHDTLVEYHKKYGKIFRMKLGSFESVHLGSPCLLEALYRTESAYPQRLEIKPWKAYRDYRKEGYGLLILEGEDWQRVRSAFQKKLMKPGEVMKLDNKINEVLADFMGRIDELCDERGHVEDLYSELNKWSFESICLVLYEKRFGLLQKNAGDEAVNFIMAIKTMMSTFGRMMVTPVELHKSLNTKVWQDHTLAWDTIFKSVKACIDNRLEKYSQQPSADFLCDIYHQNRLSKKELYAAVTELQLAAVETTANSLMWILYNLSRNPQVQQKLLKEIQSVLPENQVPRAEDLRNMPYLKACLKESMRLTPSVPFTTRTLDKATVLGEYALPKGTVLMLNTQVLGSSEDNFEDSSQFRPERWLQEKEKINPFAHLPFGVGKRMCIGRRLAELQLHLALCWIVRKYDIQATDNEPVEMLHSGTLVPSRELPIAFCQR
Procedure: HL-60 (A) and NB-4 (B) myeloid leukemia cell lines were treated with paricalcitol (0.01 μM for HL-60, 0.1 μM for NB-4) and/or arsenic trioxide (0.8 μM for HL-60, 0.6 μM for NB-4) for 3 days. Control cells were treated with vehicle alone. The levels of 24.25(OH)2D3 were measured by HPLC analysis.
The possibility that the arsenic trioxide inactivates the mitchondrial enzyme, 24-hydroxylase leading to an activation of the response of the cells to vitamin D was tested. The activity of 24-hydroxylase was examined by measuring its metabolite, 24.25(OH)2D3 by TLC analysis in leukemia cells. HL-60 and NB-4 myeloid leukemia cell lines were treated with paricalcitol (0.01 μM for HL-60, 0.1 μM for NB-4) and/or arsenic trioxide (0.8 μM for HL-60, 0.6 μM for NB-4) for 3 days. Control cells were treated with vehicle alone. Then the levels of 24.25(OH)2D3 were measured by TLC analysis. Paricalcitol alone increased the levels of 24.25(OH)2D3 in HL-60 and NB-4, while arsenic trioxide alone decreased its level compared to control cells (FIG. 11). […] The decrease of the levels of 24-hydroxylase by arsenic trioxide may explain the enhanced activity of paricalcitol by arsenic trioxide in leukemia cells.

[4] = Serum calcium in tumor-bearing nude mice; format: in vivo; conditions: 100 ng/mouse i.p. 3 days a week, after 4 weeks; control 9.5±0.4, not significantly different (p=0.17)
Procedure: For the mouse studies, BNX nu/nu nude mice at 8 weeks of age were purchased from Harlan Sprangue Dawley, Inc. (Indianapolis, Ind.) and their care was in accord with the guidelines of Cedars-Sinai Research Institute. They were maintained in pathogen-free conditions with irradiated chow. A total of 1×10^6 HT-29 cells in 0.1 ml of Matrigel (Collaborative Biological Products, Bedford, Mass.) were injected s.c. into bilateral flanks of each mouse, resulting in the formation of two tumors per mouse. The mice were blindly randomized to the experimental and control groups. Treatment was started on the day after the injection of […] cells and continued for 6 weeks. The control mice (five) received diluant only and the experimental mice (five) received paricalcitol [100 ng/day, intraperitoneally, 3 days per week (M,W,F)]. Tumor sizes were measured every week and calculated by the formula: A (length)×B (width)×C (height)×0.5236. After 4 weeks, blood was collected for serum calcium. All mice were euthanized at the end of the study, and the tumors were fixed in 10% neutral buffered formalin and embedded in paraffin for histological analysis. The data were analyzed by Student's t test.
To measure the serum calcium levels in mice, Sigma Diagnostics calcium reagent (Sigma, MO) containing o-cresolphthalein, which complexes with calcium to form a purple colored complex, was used.

24-hydroxylase mRNA = test: RT-PCR of 24-hydroxylase mRNA in HT-29 cells; format: cell-based, human; conditions: 10^−7M
Procedure: In FIG. 6B, HT-29 colon cancer cells were treated with paricalcitol (10^−7M) for 0, 6, 12 or 24 hrs and RNA was harvested. Expression of 24 hydroxylase mRNA was analysed by RT-PCR. The amounts of mRNA were normalized by comparison to 18S RNA. […] For the PCR analysis, RNA extraction and reverse transcription were done by TRIzole (Invitrogen, Carlsbad, Calif.) and reverse transcriptase (Promega, Madison, Wis.). A twenty-microliter volume of cDNA was prepared from 1 μg of RNA. cDNAs were amplified by PCR with specific primers for 24-hydroxylase and 18S. The cycle number was 25 for 18S and 32 for 24-hydroxylase. PCR product was separated on a 2% agarose gel, stained with ethidium bromide, and photographed.

NCI-H929 myeloma cells = conditions: 4 days exposure

Compound | apoptotic cells by TUNEL assay (NCI-H929 cells) | antiproliferative effect by MTT assay [1] | CD14 expression (NB-4 cells [2]) | monocytic differentiation by NBT reduction (HL-60 cells) | cells in sub-G1 population (NB-4 cells [3]) [%] | CD14 expressing cells (wild type U937 cells) | levels of 24.25(OH)2D3 (24-hydroxylase) | apoptotic cells (TUNEL) (NCI-H929 cells; 10^−7M, 96 hrs, diluant control 4%) [%] | serum calcium levels [4] [mg/dL] | time of exposure within which 24-hydroxylase mRNA expression was induced (24-hydroxylase mRNA) [h] | antiproliferative effect by MTT assay (NCI-H929 myeloma cells)
arsenic trioxide | increased | suppressed the cell growth in a dose-dependent manner | did not induced CD14 expression | little effect on differentiation | 33 | did not induce CD14 expression | decreased | – | – | – | –
C[C@H](/C=C/[C@H](C)C(C)(C)O)[C@H]1CC[C@H]2/C(=C/C=C3C[C@@H](O)C[C@H](O)C3)CCC[C@]12C [paricalcitol, 19-nor-1,25, (OH)2D3] | increased | suppressed the cell growth in a dose-dependent manner; also recorded: sensitive | did not induced CD14 expression | increased | 5 | increased CD14 expressing monoicytic cells | increased | 31 | 10.2 ± 0.7 | ≤ 6 | sensitive
